Data as given in ChEMBL document CHEMBL5352416, “Benzo[b]thiophene-2-carboxamides as novel opioid receptor agonists with potent analgesic effect and reduced constipation” (Eur J Med Chem, 2022).
Activity calls are given as the source filed them. No cut-off for these calls is given here.

What was measured:
[1] = target: T1, Mu-type opioid receptor (Homo sapiens, UniProt P35372); assay: Agonist activity at human mu opioid receptor expressed in CHO-K1 cells coexpressing Galpha15 assessed as increase in fluorescence of [ca2+]i measured for 1.52 sec by FLIPR calcium assay; assay type: functional, cell-based
T1 sequence (P35372 whole entry): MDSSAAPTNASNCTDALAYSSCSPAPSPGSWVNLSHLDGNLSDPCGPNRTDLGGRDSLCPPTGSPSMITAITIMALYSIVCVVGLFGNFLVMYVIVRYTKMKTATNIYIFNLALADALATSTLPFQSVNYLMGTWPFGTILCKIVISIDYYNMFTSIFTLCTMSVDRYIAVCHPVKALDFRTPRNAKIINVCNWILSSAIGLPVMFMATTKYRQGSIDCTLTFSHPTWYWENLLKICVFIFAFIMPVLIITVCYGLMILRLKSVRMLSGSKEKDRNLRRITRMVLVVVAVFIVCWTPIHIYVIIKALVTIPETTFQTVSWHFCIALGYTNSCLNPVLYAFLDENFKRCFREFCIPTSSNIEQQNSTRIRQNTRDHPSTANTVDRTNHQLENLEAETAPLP

[2] = target: T1, Mu-type opioid receptor; assay: Agonist activity at human mu opioid receptor expressed in CHO-K1 cells coexpressing Galpha15 assessed as increase in fluorescence of [ca2+]i by measuring maximum efficacy measured for 1.52 sec by FLIPR calcium assay relative to control; assay type: functional, cell-based
[3] = tested on: Mus musculus; assay: Antinociceptive activity in thermal stimulated C57BL/6 mouse at 4.4 mg/kg, sc measured at 30 to 180 mins by tail flick test; assay type: functional, organism-based; conditions: time 30-180 min
[4] = tested on: Mus musculus; assay: Induction of motivational effect in C57BL/6 mouse assessed as increase in reward behaviour at 2.5 mg/kg, sc administered for 4 days and measured on day 6 by CPP analysis; assay type: functional, organism-based; conditions: time 6.0 day
[5] = tested on: Mus musculus; assay: Antinociceptive activity in thermal stimulated C57BL/6 mouse assessed as drug tolerance at 126.4 to 252.8 microg/kg, sc administered twice per day for 5 days and measured immediately by tail flick test; assay type: functional, organism-based; conditions: dose 126.4-252.8 µg/kg, time 5.0 day
[6] = tested on: Mus musculus; assay: Antinociceptive activity in thermal stimulated C57BL/6 mouse assessed as tail flick latency at 4.4 mg/kg, sc measured at 30 to 60 mins by tail flick test; assay type: functional, organism-based; conditions: time 30-60 min
[7] = tested on: Mus musculus; assay: Antinociceptive activity in CFA-induced mechanical allodynia C57BL/6 mouse model at 4.4 mg/kg, sc administered twice daily pretreated with CFA for 2 days followed by compound addition and measured at 3 to 7 days by von frey test; assay type: functional, organism-based; conditions: time 3-7 day

SMILES	EC50 [1]	Emax ([2]; filed as agonist)	other results
CN(C)C(CNC(=O)c1sccc1Cl)c1ccccc1Cl (stereo not given)	1060 nM	50.7%	–
CN(C)C(CNC(=O)c1cc2ccccc2s1)C1CCCCC1 (stereo not given)	11100 nM	91%	–
Cc1ccccc1C(CNC(=O)c1cc2ccccc2s1)N(C)C (stereo not given)	6480 nM	90.8%	–
Cc1ccc2c(Cl)c(C(=O)NCCc3ccccc3Cl)sc2c1	> 10000 nM	–	Emax [2]: < 20%
CN1CC[C@]23c4c5ccc(O)c4O[C@H]2[C@@H](O)C=C[C@H]3[C@H]1C5	–	–	Activity [3]: Active; Activity [4]: Active; Activity [5]: Active; Activity [6]: Active; Activity [7]: inactive
CN(C)C(CNC(=O)c1sc2ccccc2c1Cl)c1ccccc1Cl (stereo not given)	360 nM	93.8%	–
CN(C)C(CNC(=O)c1cc2ccccc2s1)c1ccc(Cl)cc1 (stereo not given)	1260 nM	112%	–
CN(C)C(CNC(=O)c1cc2ccccc2s1)c1ccccc1Cl (stereo not given)	3.04 nM	66.7%	–
CN(C)C(CNC(=O)c1cccs1)c1ccccc1Cl (stereo not given)	400 nM	54.5%	–
CN(C)C(CNC(=O)c1cc2ccccc2s1)c1ccccc1F (stereo not given)	1240 nM	105%	–
CN(C)C(CNC(=O)c1cc2ccccc2s1)c1cccs1 (stereo not given)	13.6 nM	131%	–
